In patent US11060087B2, “Synthetic promoters for high throughput screening and gene modulation” (The Regents of the University of California, priority 2016, dated 2021):

Columns and labels:
BIRC5 = assay: High-throughput screening of FDA-approved drug library, BIRC5 synthetic promoter-driven luciferase; type: cell-based, human; conditions: BIRC5SP-Luc2-Puro MiaPaca2 cells, 48 hours after drug administration, Bright-Glo / CellTiter-Glo
Excerpt: Differentially over-expressed BIRC5 was validated using RT-PCR in rPDAC versus matching non-tumor pancreas (FIG. 8A), as well as western blot assay of ATCC™ PDAC cell lines (FIG. 8B). These preliminary data support the WGCNA that BIRC5 is an actionable gene (AG) for rPDAC. A powerful synthetic promoter for BIRC5, BIRC5-SP (BL-2), was generated (FIG. 8C) and used for BIRC5^SP-Luc2-Puro stable transfection into MiaPaca2 cells, which in turn were used for high-throughput small molecule screening (HTS) of the FDA-approved drug library. BIRC5^SP-Luc2-Puro PDAC cells were plated on 384-well plates and 2100 FDA-approved drugs were applied to cells with a pin plate automatic system. Luciferase expression was measured in a plate reader 48 hours after drug administration using Bright-Glo™. Cell viability of treated cells was measured using CellTiter-Glo™. BIRC5-luciferase signal read outs were normalized using cell viability measurements. Inhibitory drugs include daunorubicin and paclitaxel (Kusukawa N, Ishida H, Tanase K, Ito H, Aoki Y, Ooyama N, et al. [Successful treatment with docetaxel and prednisolone for paxlitaxel and carboplatin-resistant prostate cancer]. Hinyokika kiyo Acta urologica Japonica. 2013; 59(5):301-4. PubMed PMID: 23719139), as well as other novel rPDAC drugs such as bergenin, simvastatin, fluvastatin (Garwood E R, Kumar A S, Baehner F L, Moore D H, Au A, Hylton N, et al. Fluvastatin reduces proliferation and increases apoptosis in women with high grade breast cancer. Breast cancer research and treatment. 2010; 119(1):137-44. doi: 10.1007/s10549-009-0507-x. PubMed PMID: 19728082; PubMed Central PMCID: PMC4087110; Bocci G, Fioravanti A, Orlandi P, Bernardini N, Collecchi P, Del Tacca M, et al. Fluvastatin synergistically enhances the antiproliferative effect of gemcitabine in human pancreatic cancer MIAPaCa-2 cells. British journal of cancer. 2005; 93(3):319-30. doi: 10.1038/sj.bjc.6602720. […]

islet neoplasia (INeo) = assay: Potentiation of the INeo response to somatostatin analogues; conditions: preliminary data
Excerpt: The following are key findings in this field: 1.

[1] = tested on: human primary pancreatic epithelial cells (HPPE); assay: LAMC2 synthetic promoter luciferase reporter assay in normal cells; type: cell-based; conditions: HPPE and human pancreatic duct epithelial cells (FIG. 23)
Excerpt: (§1) FIG. 23 is a graph showing the relative luciferase activity of an endogenous LAMC2 promoter (LAMC2-EP-Luc), a synthetic LAMC2 promoter (LAMC2-SP-Luc), and CMV in various cell lines, in accordance with one or more embodiments of the invention.

[2] = tested on: pancreatic ductal adenocarcinoma cells (PANC-1, MIA PaPc2, AsPc-1, and Capan-2); assay: LAMC2 synthetic promoter luciferase reporter assay in PDAC cell lines; type: cell-based, human
Excerpt: FIG. 22 is a graph showing the relative luciferase activity of various synthetic LAMC2 promoters (i.e. LamS1, Lams1E4T, Lams2E4T, and Lams3E4T) and CMV in various cell lines, in accordance with one or more embodiments of the invention.
as §1
LAMC2 is a key oncologic regulator of apoptosis that is also over-expressed in most cancers, including pancreatic cancer, but not in normal cells. In one aspect of the invention, a LAMC2 synthetic promoter (BL-3) generated from the endogenous promoter of LAMC2 is provided that is 1000× more powerful than the endogenous promoter and also more powerful than the cytomegalovirus (CMV) promoter in stimulating gene expression. The promoter competes with the CMV promoter, which is non-specific for cancer. The BL-3 synthetic promoter is more highly specific for cancer, especially pancreatic cancer, since it is not expressed in normal cells, including islets of Langerhans, and therefore is less toxic. The technique to generate the LAMC2 synthetic promoter (BL-3) and its uses are similar to U.S. patent application Ser. No. 14/396,967, which describes a synthetic BL-1 promoter for the insulin gene. However, the synthetic BL-1 promoter is expressed in islets of Langerhans, which therefore can lead to […] and diabetes as a toxic effect.

Molecule | effect on BIRC5-luciferase signal normalized using cell viability (BIRC5) | effect on the INeo response to SAs (islet neoplasia (INeo)) | other results
COc1cccc2c1C(=O)c1c(O)c3c(c(O)c1C2=O)C[C@@](O)(C(C)=O)C[C@@H]3O[C@H]1C[C@H](N)[C@H](O)[C@H](C)O1 [daunorubicin] | Inhibitory | – | –
C[C@H](N)COC(=O)[C@H](CCCCN)NC(=O)Cc1c(-c2ccc3ccccc3c2)[nH]c2c1ccc1ccccc12 [SSTR5 small molecule agonist] | – | potentiates the INeo response to SAs | –
CN(C)C(=N)N=C(N)N [metformin] | – | potentiate the INeo response to SAs | –
CC(=O)O[C@H]1C(=O)[C@@]2(C)[C@H]([C@H](OC(=O)c3ccccc3)[C@]3(O)C[C@H](OC(=O)[C@H](O)[C@@H](NC(=O)c4ccccc4)c4ccccc4)C(C)=C1C3(C)C)[C@]1(OC(C)=O)CO[C@@H]1C[C@@H]2O [paclitaxel] | Inhibitory | – | –
COc1c(O)cc2c(c1O)[C@@H]1O[C@H](CO)[C@@H](O)[C@H](O)[C@H]1OC2=O [bergenin] | Inhibitory | – | –
BL-3: LAMC2 synthetic promoter generated from the endogenous promoter of LAMC2 (LamS1, SEQ ID NO: 10/11) (nucleic acid, listed as Homo sapiens) DNA 1: CGGGCCAGGTGTGCGCCCTCCTCGCTGCGAGGGGGAGCGGGCGGCTGCGGGGAGCGATTTTCCAGCCCGGTTTGTGCTCTGTGTGTTTGTCTGCCTCTGGAGGGCTGGGTCCTCCTTATTCACAGGTGAGTCACACCCTGAAACACAGGCTCTCTTCCTGTCAGGACTGAGTCAGGTAGAAGAGTCGTGCGCCCTCCTCGCTGCGAGGGGGAGCGGGCGGCTGCGGGGAGCGATTTTCCAGCCCGGTTTGTGCTCTGTGTGTTTGTCTGCCTCTGGAGGGCTGGGTCCTCCTTATTCACAGGTGAGTCACACCCTGAAACACAGGCTCTCTTCCTGTCAGGACTGAGTCAGGTAGAAGAGTCGTGCGCCCTCCTCGCTGCGAGGGGGAGCGGGCGGCTGCGGGGAGCGATTTTCCAGCCCGGTTTGTGCTCTGTGTGTTTGTCTGCCTCTGGAGGGCTGGGTCCTCCTTATTCACAGGTGAGTCACACCCTGAAACACAGGCTCTCTTCCTGTCAGGACTGAGTCAGGTAGAAGAGTCAAGCTTATAAAACCACCTGATCAAGGAAAAGGAAGGCACAGCGGAGCGCAGAGTGAGAACCACCAACCGGAATTC DNA 2: CGGTCGGGCCAGGTGTGCGCCCTCCTCGCTGCGAGGGGGAGCGGGCGGCTGCGGGGAGCGATTTTCCAGCCCGGTTTGTGCTCTGTGTGTTTGTCTGCCTCTGGAGGGCTGGGTCCTCCTTATTCACAGGTGAGTCACACCCTGAAACACAGGCTCTCTTCCTGTCAGGACTGAGTCAGGTAGAAGAGTCGTGCGCCCTCCTCGCTGCGAGGGGGAGCGGGCGGCTGCGGGGAGCGATTTTCCAGCCCGGTTTGTGCTCTGTGTGTTTGTCTGCCTCTGGAGGGCTGGGTCCTCCTTATTCACAGGTGAGTCACACCCTGAAACACAGGCTCTCTTCCTGTCAGGACTGAGTCAGGTAGAAGAGTCGTGCGCCCTCCTCGCTGCGAGGGGGAGCGGGCGGCTGCGGGGAGCGATTTTCCAGCCCGGTTTGTGCTCTGTGTGTTTGTCTGCCTCTGGAGGGCTGGGTCCTCCTTATTCACAGGTGAGTCACACCCTGAAACACAGGCTCTCTTCCTGTCAGGACTGAGTCAGGTAGAAGAGTCAAGCTTATAAAACCACCTGATCAAGGAAAAGGAAGGCACAGCGGAGCGCAGAGTGAGAACCACCAACCG | – | – | relative luciferase activity in normal pancreatic cells [1]: no activity; more powerful than the endogenous promoter in stimulating gene expression ([2]; LAMC2 synthetic promoter vs endogenous LAMC2 promoter): 1000 ×; relative luciferase activity in comparison to endogenous LAMC2 promoter and CMV promoter ([2]; PANC-1, MIA PaPc2, AsPc-1, Capan-2 (FIG. 23)): greatest amount of activity; relative luciferase activity among synthetic LAMC2 promoters and CMV ([2]; various cell lines (FIG. 22)): greatest amount of luciferase activity
